Test results as given in patent publication US20100093993A1 (priority 2007, published 2010).

Columns and labels:
rabbit neutrophil [1] = experiment: Influence on the phagocytic action of neutrophils (opsonized ampicillin resistant E. coli, colony count); conditions: neutrophils treated 1 hour, then opsonized E. coli 1 hour
rabbit neutrophil [2] = experiment: Influence on rabbit neutrophil H2O2 production (H2DCFDA fluorescence); assay type: cell-based; conditions: 2 hours at 37° C., rabbit neutrophils
Experimental: The neutrophils (1.0×10^5 cells/100 μl) were inoculated in a 96-well plate (Falcon).

[3] = system: intraperitoneal macrophage cells of a mouse; experiment: Measurement of macrophage activity: nitrite ion concentration (NO release, Griess reagent); assay type: cell-based; conditions: test compound 50 μM; for Nitrite Ion Concentration Relative Value: relative to TDCM = 1.0, 48 hours; for Nitrite Ion Concentration Actual Value: cultured 48 hours, mouse peritoneal macrophages, mean ± S.E.
Experimental: Macrophage activation indicates the condition wherein the adhesion to the tissue and the motility of the macrophages are improved, so that bacteria entering from outside or denatured self-components are phagocytized. Macrophage activity can be measured using the release of cytokine or active oxygen as an index. In Experimental Example 1 below, the macrophage activation ability was measured using the nitrite ion concentration as an index.
The present experiment was conducted with reference to the method described in Sakurai T., Kaise T., Matsubara C. Chem. Res. Toxicol. 1998, 11, 273-283. Specifically, ICR male mice (6 to 7 weeks old) were anesthetized, a phosphate buffer containing 0.05% EDTA was injected intraperitoneally, an intraperitoneal lavage was performed, and a peritoneal macrophage was aseptically recovered. After the cells were washed with an RPMI-1640 medium (containing 10% bovine fetal serum), the macrophage cells were inoculated so that there were 1×10^5 cells/100 μl in each well of the 96-well plate. After being pre-incubated for 2 hours, the test compound (50 μM) was added to the culture medium, and cultured for 48 hours. Afterwards, a Griess test reagent was added to the culture medium, which was allowed to stand for 10 minutes; the absorbency thereof was measured with a microplate reader (filter: 550/630 nm), after which the nitrite ion concentration (NO2^−) was determined from a calibration curve. The reproducibility of the above-described test was confirmed by 3 wells, the experiment was repeated at least three times using different mice, and the mean values ±S.E. were determined.

[4] = system: Clostridium perfringens (Type A NTCT8237); assay type: in vivo, ICR mice; conditions: emulsion solution 100 mg/mouse, 3 hours before C. perfringens 2.4×10^7 cells/mouse

SMILES	The number of colonies (rabbit neutrophil [1]; 50 μM)	The number of colonies (rabbit neutrophil [1]; 100 μM)	H2O2 production (rabbit neutrophil [2]; 50 μM) [nmol/10^5 Cells]	H2O2 production (rabbit neutrophil [2]; 100 μM) [nmol/10^5 Cells]	Nitrite Ion Concentration Relative Value [3]	Nitrite Ion Concentration Actual Value [3] [nM]	The number surviving/Administered group After 2 hr [4]	The number surviving/Administered group After 6 hr [4]	The number surviving/Administered group After 12 hr [4]	The number surviving/Administered group After 24 hr [4]	The number surviving/Administered group after 48 hr [4]
CCCCCCCCCCCCCCCCC(CCCCCCCCCCCCCCCC)C(=O)NCC1O[C@H](O[C@H]2OC(CNC(=O)C(CCCCCCCCCCCCCCCC)CCCCCCCCCCCCCCCC)[C@@H](O)C(O)C2O)C(O)C(O)[C@@H]1O (stereo partly drawn) [Ex. 7, 6,6′-bis-N-(2-hexadecyloctadecanoylamino)-6,6′-dideoxy-α,α′-trehalose]	110 ± 7	200 ± 8	0.10 ± 0.03	0.15 ± 0.02	0.6	300 ± 229					
CCCCCCCCCCCCCCC[C@@H](O)[C@@H](CCCCCCCCCCCCCC)C(=O)OCC1O[C@H](O[C@H]2OC(COC(=O)[C@H](CCCCCCCCCCCCCC)[C@H](O)CCCCCCCCCCCCCCC)[C@@H](O)[C@H](O)C2O)C(O)[C@@H](O)[C@@H]1O (some centres unmarked) [TDCM, trehalose 6,6′-dicorynomycolate, reference compound]	50 ± 10	87 ± 10	0.18 ± 0.02	0.21 ± 0.02	1.0	500 ± 271	4/4	4/4	4/4	4/4	4/4
CCCCCCCCCCCCCC(CCCCCCCCCCCCC)C(=O)NCC1O[C@H](O[C@H]2OC(CNC(=O)C(CCCCCCCCCCCCC)CCCCCCCCCCCCC)[C@@H](O)C(O)C2O)C(O)C(O)[C@@H]1O (stereo partly drawn) [Ex. 4, 6,6′-bis-N-(2-tridecylpentadecanoylamino)-6,6′-dideoxy-α,α′-trehalose]	200 ± 15	350 ± 30	0.15 ± 0.02	0.18 ± 0.02	7.6	3676 ± 385	4/4	4/4	4/4	4/4	4/4
CCCCCCCCCCCCCCC(CCCCCCCCCCCCCC)C(=O)NCC1O[C@H](O[C@H]2OC(CNC(=O)C(CCCCCCCCCCCCCC)CCCCCCCCCCCCCC)[C@@H](O)C(O)C2O)C(O)C(O)[C@@H]1O (stereo partly drawn) [Ex. 5, 6,6′-bis-N-(2-tetradecylhexadecanoylamino)-6,6′-dideoxy-α,α′-trehalose]	250 ± 16	450 ± 31	0.26 ± 0.04	0.29 ± 0.04	8.8	4419 ± 4250	4/4	4/4	4/4	4/4	4/4
CCCCCCCCCCC(CCCCCCCCCC)C(=O)NCC1O[C@H](O[C@H]2OC(CNC(=O)C(CCCCCCCCCC)CCCCCCCCCC)[C@@H](O)C(O)C2O)C(O)C(O)[C@@H]1O (stereo partly drawn) [Ex. 1, 6,6′-bis-N-(2-decyldodecanoylamino)-6,6′-dideoxy-α,α′-trehalose]	250 ± 11	487 ± 20	0.33 ± 0.05	0.38 ± 0.05	0.4	200 ± 133	4/4	4/4	4/4	4/4	4/4
CCCCCCCCCCCCC(CCCCCCCCCCCC)C(=O)NCC1O[C@H](O[C@H]2OC(CNC(=O)C(CCCCCCCCCCCC)CCCCCCCCCCCC)[C@@H](O)C(O)C2O)C(O)C(O)[C@@H]1O (stereo partly drawn) [Ex. 3, 6,6′-bis-N-(2-dodecyltetradecanoylamino)-6,6′-dideoxy-α,α′-trehalose]	58 ± 9	112 ± 15	0.18 ± 0.03	0.20 ± 0.03	2.4	1202 ± 647					
CCCCCCCCCCCCCCCC(CCCCCCCCCCCCCCC)C(=O)NCC1O[C@H](O[C@H]2OC(CNC(=O)C(CCCCCCCCCCCCCCC)CCCCCCCCCCCCCCC)[C@@H](O)C(O)C2O)C(O)C(O)[C@@H]1O (stereo partly drawn) [Ex. 6, 6,6′-bis-N-(2-pentadecylheptadecanoylamino)-6,6′-dideoxy-α,α′-trehalose]	120 ± 11	220 ± 12	0.11 ± 0.03	0.16 ± 0.03	1.7	851 ± 608					
CCCCCCCCCCCC(CCCCCCCCCCC)C(=O)NCC1O[C@H](O[C@H]2OC(CNC(=O)C(CCCCCCCCCCC)CCCCCCCCCCC)[C@@H](O)C(O)C2O)C(O)C(O)[C@@H]1O (stereo partly drawn) [Ex. 2, 6,6′-bis-N-(2-undecyltridecanoylamino)-6,6′-dideoxy-α,α′-trehalose]	89 ± 21	172 ± 13	0.25 ± 0.02	0.26 ± 0.02	3.9	1973 ± 973					
